From patent publication US20250236608A1, “EGFR INHIBITORS” (Blueprint Medicines Corporation, priority 2022, published 2025)

Experiments:
EGFR mutant NSCLC = conditions: cited from earlier work; for objective response rate (ORR): EGFR M+ NSCLC patients treated first line (1 L)
EGFR (d746-750) = EGFR (d746-750) (Homo sapiens (Human), UniProt P00533, DEL746-750); experiment: Biochemical EGFR inhibition assay, EGFR (d746-750); conditions: Caliper mobility shift; 1.0 mM ATP or ATP Km; read-out: Enz EGFR_Exon19-del746-750 IC50
Sequence of EGFR (d746-750) (P00533 other isoform, or with tags, fused parts or gaps del 1-694/del 746-750 limits assumed): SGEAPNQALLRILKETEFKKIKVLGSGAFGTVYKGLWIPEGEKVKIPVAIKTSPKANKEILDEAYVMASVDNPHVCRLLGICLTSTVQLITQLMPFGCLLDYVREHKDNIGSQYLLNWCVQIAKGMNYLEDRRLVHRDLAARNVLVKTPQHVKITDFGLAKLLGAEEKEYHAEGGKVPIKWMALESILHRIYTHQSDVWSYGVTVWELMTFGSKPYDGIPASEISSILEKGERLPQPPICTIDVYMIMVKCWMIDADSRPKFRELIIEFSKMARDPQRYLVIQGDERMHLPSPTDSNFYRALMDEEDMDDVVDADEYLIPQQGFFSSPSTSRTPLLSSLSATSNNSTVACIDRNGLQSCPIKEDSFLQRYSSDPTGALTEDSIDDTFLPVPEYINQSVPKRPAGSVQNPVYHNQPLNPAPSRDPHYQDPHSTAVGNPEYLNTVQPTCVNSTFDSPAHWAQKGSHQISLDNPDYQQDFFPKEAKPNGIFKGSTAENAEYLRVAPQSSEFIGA

[1] = target: pEGFR (Tyr1068) in PC-9 cells (Ex19Del) (Homo sapiens (Human), UniProt P00533, DEL746-750); experiment: PC-9 pEGFR AlphaLISA assay; assay type: cell-based; conditions: 4 hours incubation, p-EGFR (Tyr1068) AlphaLISA, read-out: Ext pEGFR_PC-9 Ex19Del IC50
Sequence of pEGFR (Tyr1068) in PC-9 cells (Ex19Del) (P00533 other isoform, or with tags, fused parts or gaps del 746-750): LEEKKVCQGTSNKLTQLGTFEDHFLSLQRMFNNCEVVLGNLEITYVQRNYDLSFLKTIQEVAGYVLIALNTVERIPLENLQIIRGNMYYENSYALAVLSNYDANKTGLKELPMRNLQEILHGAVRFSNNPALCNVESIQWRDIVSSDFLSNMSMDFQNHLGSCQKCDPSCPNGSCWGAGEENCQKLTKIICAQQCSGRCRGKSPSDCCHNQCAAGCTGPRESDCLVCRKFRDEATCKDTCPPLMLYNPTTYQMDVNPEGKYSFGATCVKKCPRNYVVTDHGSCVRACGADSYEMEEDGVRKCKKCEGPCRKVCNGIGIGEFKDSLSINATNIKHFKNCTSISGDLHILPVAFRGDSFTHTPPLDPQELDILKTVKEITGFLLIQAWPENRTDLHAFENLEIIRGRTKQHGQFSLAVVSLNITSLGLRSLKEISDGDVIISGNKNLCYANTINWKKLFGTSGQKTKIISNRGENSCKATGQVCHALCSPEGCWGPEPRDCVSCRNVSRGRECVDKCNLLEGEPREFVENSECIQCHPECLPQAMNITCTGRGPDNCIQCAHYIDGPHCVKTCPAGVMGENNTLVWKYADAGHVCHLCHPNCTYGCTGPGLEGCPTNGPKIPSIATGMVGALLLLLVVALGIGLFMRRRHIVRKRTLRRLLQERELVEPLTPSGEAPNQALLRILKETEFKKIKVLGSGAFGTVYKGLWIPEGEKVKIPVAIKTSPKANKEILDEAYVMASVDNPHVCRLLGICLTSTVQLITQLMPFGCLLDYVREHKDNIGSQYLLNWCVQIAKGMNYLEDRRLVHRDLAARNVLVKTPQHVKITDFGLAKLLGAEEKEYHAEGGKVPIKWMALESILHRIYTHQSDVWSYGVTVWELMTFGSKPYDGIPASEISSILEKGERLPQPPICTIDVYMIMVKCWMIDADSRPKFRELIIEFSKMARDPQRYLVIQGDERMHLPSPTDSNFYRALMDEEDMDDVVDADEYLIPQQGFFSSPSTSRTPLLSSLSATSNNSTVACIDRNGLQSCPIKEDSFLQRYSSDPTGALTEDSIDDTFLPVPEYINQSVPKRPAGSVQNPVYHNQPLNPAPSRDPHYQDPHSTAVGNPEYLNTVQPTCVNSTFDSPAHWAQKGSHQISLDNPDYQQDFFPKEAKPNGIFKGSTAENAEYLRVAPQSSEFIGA
How it was run: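 Cells seeded in phenol-free DMEM with 10% FBS adhered overnight at 37° C./5% CO2, then were exposed for 4 hours to a 4-fold, 10-point compound dilution series. After lysis, phospho-EGFR was read by AlphaLISA SureFire Ultra, and IC50 was fitted from percent inhibition versus log concentration.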

EGFR L858R = EGFR L858R (Homo sapiens (Human), UniProt P00533, L858R); experiment: Biochemical EGFR inhibition assay, EGFR L858R; conditions: Caliper mobility shift; 1.0 mM ATP or ATP Km; read-out: Enz EGFR_L858R IC50
Sequence of EGFR L858R (P00533 25-1210 L858R): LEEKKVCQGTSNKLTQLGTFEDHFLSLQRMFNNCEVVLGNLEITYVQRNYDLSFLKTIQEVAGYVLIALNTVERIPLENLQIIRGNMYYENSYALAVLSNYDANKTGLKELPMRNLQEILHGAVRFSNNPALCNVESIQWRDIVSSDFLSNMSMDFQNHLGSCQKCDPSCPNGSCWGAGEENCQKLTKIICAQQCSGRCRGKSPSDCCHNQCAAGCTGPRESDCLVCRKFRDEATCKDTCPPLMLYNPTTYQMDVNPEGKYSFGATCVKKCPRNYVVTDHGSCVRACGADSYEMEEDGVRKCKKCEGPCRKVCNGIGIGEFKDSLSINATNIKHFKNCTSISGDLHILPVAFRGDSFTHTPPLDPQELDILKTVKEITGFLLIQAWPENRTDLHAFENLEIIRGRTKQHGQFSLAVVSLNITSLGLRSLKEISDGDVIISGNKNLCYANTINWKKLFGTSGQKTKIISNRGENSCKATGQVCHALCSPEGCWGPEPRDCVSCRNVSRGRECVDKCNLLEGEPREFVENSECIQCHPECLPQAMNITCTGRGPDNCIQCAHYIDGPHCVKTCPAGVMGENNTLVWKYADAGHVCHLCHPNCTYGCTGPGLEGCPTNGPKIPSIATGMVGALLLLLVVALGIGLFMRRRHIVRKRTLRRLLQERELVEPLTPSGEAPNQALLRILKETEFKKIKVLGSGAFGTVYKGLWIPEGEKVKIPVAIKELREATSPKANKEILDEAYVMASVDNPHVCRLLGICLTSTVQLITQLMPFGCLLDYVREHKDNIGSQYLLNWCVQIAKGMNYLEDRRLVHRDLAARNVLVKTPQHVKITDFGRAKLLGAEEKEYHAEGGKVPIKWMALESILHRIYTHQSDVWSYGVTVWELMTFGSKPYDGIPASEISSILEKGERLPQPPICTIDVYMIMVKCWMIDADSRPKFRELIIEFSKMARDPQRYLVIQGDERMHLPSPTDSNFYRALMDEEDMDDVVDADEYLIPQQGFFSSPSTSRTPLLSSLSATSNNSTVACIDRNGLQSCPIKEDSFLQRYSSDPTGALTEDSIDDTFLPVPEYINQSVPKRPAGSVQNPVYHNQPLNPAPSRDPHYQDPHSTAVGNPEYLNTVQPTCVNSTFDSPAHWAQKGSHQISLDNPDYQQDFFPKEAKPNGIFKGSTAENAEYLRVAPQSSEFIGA

| SMILES | objective response rate (ORR) (EGFR mutant NSCLC) | progression-free survival (PFS) (EGFR mutant NSCLC; first line, NSCLC harboring del 19 and L858R mutations) | IC50 (EGFR (d746-750)) | IC50 [1] | IC50 (EGFR L858R) |
| --- | --- | --- | --- | --- | --- |
| C#Cc1cccc(Nc2ncnc3cc(OCCOC)c(OCCOC)cc23)c1 [erlotinib] | 60-85% | – | – | – | – |
| C=CC(=O)Nc1cc(Nc2nccc(-c3cn(C)c4ccccc34)n2)c(OC)cc1N(C)CCN(C)C [osimertinib] | 60-85% | 18.9 mo | – | – | – |
| COc1cc2ncnc(-c3cn(C)nc3-c3ccccc3F)c2cc1NC(=O)[C@@]12COC[C@@H]1C2 (single isomer, unassigned) [Example 240, (1R,5R)—N-(4-(3-(2-fluorophenyl)-1-methyl-1H-pyrazol-4-yl)-7-methoxyquinazolin-6-yl)-3-oxabicyclo[3.1.0]hexane-1-carboxamide or (1S,5S)—N-(4-(3-(2-fluorophenyl)-1-methyl-1H-pyrazol-4-yl)-7-methoxyquinazolin-6-yl)-3-oxabicyclo[3.1.0]hexane-1-carboxamide] | – | – | 0.8 nM | 1.4 nM | 1.8 nM |
| COc1cc2ncnc(-c3cn(C)nc3-c3ccccc3)c2cc1OC(=O)N1[C@@H](C)CN(C)C[C@@H]1C [Example 79, 7-methoxy-4-(1-methyl-3-phenyl-1H-pyrazol-4-yl)quinazolin-6-yl (2S,6S)-2,4,6-trimethylpiperazine-1-carboxylate] | – | – | 3.1 nM | 9.6 nM | 6.5 nM |
| Cn1cc(-c2ccc3c(-c4cnn(C)c4-c4ccccc4)ncnc3c2)cn1 [Example 497] | – | – | 1.8 nM | 38.6 nM | 1.4 nM |
| CCn1cc(-c2ncnc3cc(OC)c(NC(=O)[C@]45COC[C@H]4C5)cc23)c(-c2ccccc2F)n1 (mixture of isomers) [Example 263, (1S,5S)—N-(4-(1-ethyl-3-(2-fluorophenyl)-1H-pyrazol-4-yl)-7-methoxyquinazolin-6-yl)-3-oxabicyclo[3.1.0]hexane-1-carboxamide and (1R,5R)—N-(4-(1-ethyl-3-(2-fluorophenyl)-1H-pyrazol-4-yl)-7-methoxyquinazolin-6-yl)-3-oxabicyclo[3.1.0]hexane-1-carboxamide] | – | – | 0.7 nM | 2.7 nM | 1.7 nM |
| COc1cc2ncnc(-c3cn(C)nc3-c3ccccc3)c2cc1NC(=O)c1cnn(C(F)(F)F)c1 [Example 187, N-(7-methoxy-4-(1-methyl-3-phenyl-1H-pyrazol-4-yl)quinazolin-6-yl)-1-(trifluoromethyl)-1H-pyrazole-4-carboxamide] | – | – | 1.5 nM | 4 nM | 2.6 nM |
